Results taken from patent US20220088016A1, “CANCER TREATMENT USING MULTI-TARGETED KINASE INHIBITOR IN COMBINATION OF PROTEIN KINASE BIOMARKERS” (ZHEJIANG CROWNMAB BIOTECH CO. LTD., priority 2019, published 2022).

Experiments:
ARK5 = ARK5 (Homo sapiens, UniProt O60285); test: Kinase profiling; type: binding; conditions: read-out: % Ctrl @ 1000 nM
PIM1 = PIM1 (Homo sapiens, UniProt P11309); test: Kinase profiling; type: binding; conditions: read-out: % Ctrl @ 1000 nM
MAP3K15 = MAP3K15 (Homo sapiens, UniProt Q6ZN16); test: Kinase profiling; type: binding; conditions: read-out: % Ctrl @ 1000 nM
FLT3 (D835H) = FLT3 (D835H) (Homo sapiens, UniProt P36888, D835H); test: Kinase profiling; type: binding; conditions: read-out: % Ctrl @ 1000 nM
PLK2 = PLK2 (Homo sapiens, UniProt Q9NYY3); test: Kinase profiling; type: binding; conditions: read-out: % Ctrl @ 1000 nM
PDPK1 = PDPK1 (Homo sapiens, UniProt O15530); test: Kinase profiling; type: binding; conditions: read-out: % Ctrl @ 1000 nM
MARK4 = MARK4 (Homo sapiens, UniProt Q96L34); test: Kinase profiling; type: binding; conditions: read-out: % Ctrl @ 1000 nM
CTK = CTK (Homo sapiens, UniProt P42679); test: Kinase profiling; type: binding; conditions: read-out: % Ctrl @ 1000 nM
CDK8 = CDK8 (Homo sapiens, UniProt P49336); test: Kinase profiling; type: binding; conditions: read-out: % Ctrl @ 1000 nM
M-NFS-60 cells = test: Proliferation of M-NFS-60 cells (CTG assay); type: cell-based, mouse; conditions: M-NFS-60 (CSF-1 dependent), 3 days
Experimental: Two syngeneic cell lines M-NFS-60 and RAW264.7 and engineered BaF3 hCSFIR cell line were starved and then tested with CBT-102 and other test articles for 3 days in the temperature of 37° C., 5% CO2 and 95% humidity. The cell viability was then detected using CTG assay. The software of GraphPad Prism was used to calculate IC50.
CSF-1 dependent mouse myeloid M-NFS-60 cells were employed as target cells while a CSF-1 independent cell line Raw 264.7 was used as a negative control. In addition to CBT-102, the study also included 3 CSF-1R inhibitors: GW2580, BLZ945 and Pexidartinib.

ABL2 = ABL2 (Homo sapiens, UniProt P42684); test: Kinase profiling; type: binding; conditions: read-out: % Ctrl @ 1000 nM
TRKB = TRKB (Homo sapiens, UniProt Q16620); test: Kinase profiling; type: binding; conditions: read-out: % Ctrl @ 1000 nM
PIP5K1C = PIP5K1C (Homo sapiens, UniProt O60331); test: Kinase profiling; type: binding; conditions: read-out: % Ctrl @ 1000 nM
LRRK2 = LRRK2 (Homo sapiens, UniProt Q5S007); test: Kinase profiling; type: binding; conditions: read-out: % Ctrl @ 1000 nM
NEK5 = molecular target: T1, NEK5 (Homo sapiens, UniProt Q6P3R8); test: Kinase profiling; type: binding; conditions: read-out: % Ctrl @ 1000 nM
T1 construct: T7 phage fusion (said for most assays); made in house

NEK9 = molecular target: T2, NEK9 (Homo sapiens, UniProt Q8TD19); test: Kinase profiling; type: binding; conditions: read-out: % Ctrl @ 1000 nM
T2 construct: T7 phage fusion (said for most assays); made in house

SRC = SRC (Homo sapiens, UniProt P12931); test: Kinase profiling; type: binding; conditions: read-out: % Ctrl @ 1000 nM
STK36 = STK36 (Homo sapiens, UniProt Q9NRP7); test: Kinase profiling; type: binding; conditions: read-out: % Ctrl @ 1000 nM
PAK2 = PAK2 (Homo sapiens, UniProt Q13177); test: Kinase profiling; type: binding; conditions: read-out: % Ctrl @ 1000 nM
WNK1 = WNK1 (Homo sapiens, UniProt Q9H4A3); test: Kinase profiling; type: binding; conditions: read-out: % Ctrl @ 1000 nM
Chain of WNK1 (Q9H4A3 whole entry): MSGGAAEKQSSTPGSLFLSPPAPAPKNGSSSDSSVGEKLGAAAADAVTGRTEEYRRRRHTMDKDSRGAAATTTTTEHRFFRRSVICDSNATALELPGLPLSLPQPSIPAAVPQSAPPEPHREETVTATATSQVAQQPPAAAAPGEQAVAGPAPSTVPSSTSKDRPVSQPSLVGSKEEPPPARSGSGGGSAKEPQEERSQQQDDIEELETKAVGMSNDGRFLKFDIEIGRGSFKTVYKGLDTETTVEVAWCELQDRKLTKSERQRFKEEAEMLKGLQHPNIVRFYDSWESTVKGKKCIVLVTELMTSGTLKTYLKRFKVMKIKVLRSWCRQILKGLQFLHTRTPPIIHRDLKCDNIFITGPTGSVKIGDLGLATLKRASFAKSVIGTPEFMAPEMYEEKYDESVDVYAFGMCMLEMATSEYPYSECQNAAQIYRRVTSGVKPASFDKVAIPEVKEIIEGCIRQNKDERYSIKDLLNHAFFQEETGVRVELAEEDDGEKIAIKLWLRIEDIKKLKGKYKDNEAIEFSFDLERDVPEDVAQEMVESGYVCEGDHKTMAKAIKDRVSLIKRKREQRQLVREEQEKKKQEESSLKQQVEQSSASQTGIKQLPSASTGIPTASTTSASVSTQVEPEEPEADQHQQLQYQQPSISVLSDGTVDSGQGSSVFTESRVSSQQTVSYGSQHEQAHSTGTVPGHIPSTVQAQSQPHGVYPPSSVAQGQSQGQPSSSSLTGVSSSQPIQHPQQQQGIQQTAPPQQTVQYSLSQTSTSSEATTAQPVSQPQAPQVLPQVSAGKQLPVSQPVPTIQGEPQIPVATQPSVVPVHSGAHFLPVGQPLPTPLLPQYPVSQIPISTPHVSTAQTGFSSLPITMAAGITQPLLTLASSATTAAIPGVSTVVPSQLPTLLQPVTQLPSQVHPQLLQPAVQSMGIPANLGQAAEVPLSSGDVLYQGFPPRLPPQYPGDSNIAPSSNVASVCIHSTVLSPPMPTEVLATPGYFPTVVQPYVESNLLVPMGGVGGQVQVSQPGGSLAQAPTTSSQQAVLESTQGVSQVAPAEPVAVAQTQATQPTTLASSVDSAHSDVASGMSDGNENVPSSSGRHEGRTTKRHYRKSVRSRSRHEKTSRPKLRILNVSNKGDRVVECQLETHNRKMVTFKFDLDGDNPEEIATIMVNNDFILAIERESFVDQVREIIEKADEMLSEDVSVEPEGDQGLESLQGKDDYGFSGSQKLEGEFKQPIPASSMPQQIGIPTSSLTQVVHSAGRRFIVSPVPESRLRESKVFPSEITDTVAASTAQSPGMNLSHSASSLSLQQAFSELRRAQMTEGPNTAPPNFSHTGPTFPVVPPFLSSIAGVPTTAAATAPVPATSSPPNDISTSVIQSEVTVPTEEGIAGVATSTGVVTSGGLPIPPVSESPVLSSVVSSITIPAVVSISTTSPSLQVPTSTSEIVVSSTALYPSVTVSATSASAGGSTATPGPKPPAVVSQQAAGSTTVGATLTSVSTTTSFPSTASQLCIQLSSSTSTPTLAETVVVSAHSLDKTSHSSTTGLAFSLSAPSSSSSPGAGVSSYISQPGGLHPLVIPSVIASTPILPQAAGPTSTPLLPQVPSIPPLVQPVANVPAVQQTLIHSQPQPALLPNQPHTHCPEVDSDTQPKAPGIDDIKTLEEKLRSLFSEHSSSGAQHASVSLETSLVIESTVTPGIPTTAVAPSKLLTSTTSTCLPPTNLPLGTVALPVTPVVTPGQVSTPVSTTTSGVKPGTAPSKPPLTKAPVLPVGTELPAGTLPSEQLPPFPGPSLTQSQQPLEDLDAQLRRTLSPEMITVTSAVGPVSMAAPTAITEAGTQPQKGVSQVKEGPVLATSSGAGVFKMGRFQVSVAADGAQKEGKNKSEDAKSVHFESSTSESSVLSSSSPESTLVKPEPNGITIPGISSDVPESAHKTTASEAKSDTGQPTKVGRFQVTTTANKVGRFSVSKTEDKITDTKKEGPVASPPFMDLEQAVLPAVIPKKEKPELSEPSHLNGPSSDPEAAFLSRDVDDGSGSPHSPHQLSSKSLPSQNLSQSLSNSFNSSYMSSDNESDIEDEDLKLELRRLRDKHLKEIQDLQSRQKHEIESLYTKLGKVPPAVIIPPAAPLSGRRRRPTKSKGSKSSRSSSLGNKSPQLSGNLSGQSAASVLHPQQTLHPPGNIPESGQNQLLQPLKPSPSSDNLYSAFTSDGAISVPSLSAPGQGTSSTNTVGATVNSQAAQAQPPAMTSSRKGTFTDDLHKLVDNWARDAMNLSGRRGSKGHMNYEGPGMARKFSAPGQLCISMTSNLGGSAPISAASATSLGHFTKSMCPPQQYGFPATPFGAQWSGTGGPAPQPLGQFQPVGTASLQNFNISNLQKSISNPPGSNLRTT

MST3 = molecular target: T3, MST3 (Homo sapiens, UniProt Q9Y6E0); test: Kinase profiling; type: binding; conditions: read-out: % Ctrl @ 1000 nM
T3 construct: T7 phage fusion (said for most assays); made in house

TAOK1 = TAOK1 (Homo sapiens, UniProt Q7L7X3); test: Kinase profiling; type: binding; conditions: read-out: % Ctrl @ 1000 nM
CAMK1B = CAMK1B (Homo sapiens, UniProt Q6P2M8); test: Kinase profiling; type: binding; conditions: read-out: % Ctrl @ 1000 nM
MKNK2 = molecular target: T4, MKNK2 (Homo sapiens, UniProt Q9HBH9); test: Kinase profiling; type: binding; conditions: read-out: % Ctrl @ 1000 nM
T4 construct: T7 phage fusion (stated for most kinases of the panel only); made in house; host or cells: T7 phage in E. coli (BL21-derived) or HEK-293 cells

EPHA2 = EPHA2 (Homo sapiens, UniProt P29317); test: Kinase profiling; type: binding; conditions: read-out: % Ctrl @ 1000 nM
WNK4 = WNK4 (Homo sapiens, UniProt Q96J92); test: Kinase profiling; type: binding; conditions: read-out: % Ctrl @ 1000 nM
Chain of WNK4 (Q96J92 whole entry): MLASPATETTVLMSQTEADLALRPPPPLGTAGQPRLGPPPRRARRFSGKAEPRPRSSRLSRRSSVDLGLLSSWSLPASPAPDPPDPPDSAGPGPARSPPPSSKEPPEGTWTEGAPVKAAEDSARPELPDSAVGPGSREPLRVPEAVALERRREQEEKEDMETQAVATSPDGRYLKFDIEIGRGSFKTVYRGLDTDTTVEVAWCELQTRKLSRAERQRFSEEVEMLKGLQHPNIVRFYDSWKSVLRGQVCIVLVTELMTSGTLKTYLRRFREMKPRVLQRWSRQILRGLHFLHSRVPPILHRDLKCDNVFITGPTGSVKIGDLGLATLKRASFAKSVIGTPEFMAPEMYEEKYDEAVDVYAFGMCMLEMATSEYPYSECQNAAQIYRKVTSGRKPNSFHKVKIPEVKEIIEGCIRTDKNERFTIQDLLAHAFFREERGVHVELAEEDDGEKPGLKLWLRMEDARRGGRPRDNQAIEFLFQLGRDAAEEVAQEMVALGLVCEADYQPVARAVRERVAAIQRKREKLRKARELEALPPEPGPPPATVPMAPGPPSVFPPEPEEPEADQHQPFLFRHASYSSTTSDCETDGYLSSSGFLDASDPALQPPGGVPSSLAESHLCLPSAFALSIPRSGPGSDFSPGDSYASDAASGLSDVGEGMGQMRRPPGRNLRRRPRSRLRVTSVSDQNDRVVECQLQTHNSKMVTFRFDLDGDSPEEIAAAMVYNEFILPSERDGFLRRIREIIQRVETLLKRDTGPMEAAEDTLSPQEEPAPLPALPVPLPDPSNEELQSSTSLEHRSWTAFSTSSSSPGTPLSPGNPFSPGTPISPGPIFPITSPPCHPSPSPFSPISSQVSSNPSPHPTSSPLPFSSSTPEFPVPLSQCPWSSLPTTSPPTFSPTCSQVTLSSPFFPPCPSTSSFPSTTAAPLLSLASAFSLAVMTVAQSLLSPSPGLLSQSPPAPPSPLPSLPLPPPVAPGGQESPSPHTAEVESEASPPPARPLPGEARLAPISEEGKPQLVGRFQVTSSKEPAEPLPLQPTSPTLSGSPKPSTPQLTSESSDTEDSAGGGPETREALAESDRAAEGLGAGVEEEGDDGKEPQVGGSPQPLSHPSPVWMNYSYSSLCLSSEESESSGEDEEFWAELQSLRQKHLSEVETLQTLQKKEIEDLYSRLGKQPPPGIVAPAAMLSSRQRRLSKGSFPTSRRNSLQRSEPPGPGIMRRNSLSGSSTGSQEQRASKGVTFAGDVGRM

ERK5 = ERK5 (Homo sapiens, UniProt Q13164); test: Kinase profiling; type: binding; conditions: read-out: % Ctrl @ 1000 nM
CDK4-cyclinD3 = CDK4-cyclinD3 (Homo sapiens, UniProt P11802); test: Kinase profiling; type: binding; conditions: read-out: % Ctrl @ 1000 nM
CSNK1A1 = CSNK1A1 (Homo sapiens, UniProt P48729); test: Kinase profiling; type: binding; conditions: read-out: % Ctrl @ 1000 nM
HCK = HCK (Homo sapiens, UniProt P08631); test: Kinase profiling; type: binding; conditions: read-out: % Ctrl @ 1000 nM
DLK = DLK (Homo sapiens, UniProt Q12852); test: Kinase profiling; type: binding; conditions: read-out: % Ctrl @ 1000 nM
TAOK2 = TAOK2 (Homo sapiens, UniProt Q9UL54); test: Kinase profiling; type: binding; conditions: read-out: % Ctrl @ 1000 nM
Chain of TAOK2 (Q9UL54 whole entry): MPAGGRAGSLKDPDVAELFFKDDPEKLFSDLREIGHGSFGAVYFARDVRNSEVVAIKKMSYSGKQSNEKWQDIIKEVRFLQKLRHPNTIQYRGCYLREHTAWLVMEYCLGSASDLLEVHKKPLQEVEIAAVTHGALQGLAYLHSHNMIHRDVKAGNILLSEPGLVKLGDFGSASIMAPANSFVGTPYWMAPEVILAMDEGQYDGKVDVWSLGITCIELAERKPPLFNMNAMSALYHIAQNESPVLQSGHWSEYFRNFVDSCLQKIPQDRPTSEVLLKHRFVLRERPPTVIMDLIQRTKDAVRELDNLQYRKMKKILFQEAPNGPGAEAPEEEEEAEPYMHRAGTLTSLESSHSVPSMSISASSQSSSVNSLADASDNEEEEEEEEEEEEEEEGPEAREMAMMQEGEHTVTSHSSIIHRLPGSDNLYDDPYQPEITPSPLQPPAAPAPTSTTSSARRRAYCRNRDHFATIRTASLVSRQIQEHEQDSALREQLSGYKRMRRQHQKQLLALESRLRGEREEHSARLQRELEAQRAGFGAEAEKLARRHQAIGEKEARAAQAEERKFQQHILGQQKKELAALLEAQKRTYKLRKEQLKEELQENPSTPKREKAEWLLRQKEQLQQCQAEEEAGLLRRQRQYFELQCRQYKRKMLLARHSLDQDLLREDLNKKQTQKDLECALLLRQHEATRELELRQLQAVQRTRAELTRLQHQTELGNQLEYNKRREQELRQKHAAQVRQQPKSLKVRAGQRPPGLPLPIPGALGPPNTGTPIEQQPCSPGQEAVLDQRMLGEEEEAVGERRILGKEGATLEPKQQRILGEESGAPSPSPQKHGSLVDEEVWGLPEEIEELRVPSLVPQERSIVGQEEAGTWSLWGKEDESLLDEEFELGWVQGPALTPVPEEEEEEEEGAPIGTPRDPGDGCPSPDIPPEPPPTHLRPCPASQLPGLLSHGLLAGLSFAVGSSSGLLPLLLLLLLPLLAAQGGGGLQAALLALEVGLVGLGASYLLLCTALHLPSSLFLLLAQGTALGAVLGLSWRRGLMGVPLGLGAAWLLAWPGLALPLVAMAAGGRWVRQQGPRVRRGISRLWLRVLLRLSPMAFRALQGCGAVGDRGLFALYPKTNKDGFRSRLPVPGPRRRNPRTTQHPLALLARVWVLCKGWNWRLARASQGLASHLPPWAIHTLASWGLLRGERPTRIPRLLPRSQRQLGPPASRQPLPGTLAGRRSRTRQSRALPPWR

BIKE = BIKE (Homo sapiens, UniProt Q9NSY1); test: Kinase profiling; type: binding; conditions: read-out: % Ctrl @ 1000 nM
GSK3A = GSK3A (Homo sapiens, UniProt P49840); test: Kinase profiling; type: binding; conditions: read-out: % Ctrl @ 1000 nM
TSSK1B = TSSK1B (Homo sapiens, UniProt Q9BXA7); test: Kinase profiling; type: binding; conditions: read-out: % Ctrl @ 1000 nM
NEK10 = molecular target: T5, NEK10 (Homo sapiens, UniProt Q6ZWH5); test: Kinase profiling; type: binding; conditions: read-out: % Ctrl @ 1000 nM
T5 construct: T7 phage fusion (said for most assays); made in house

## Cc1cc(Oc2cc(NC(=O)C3CC3)ncn2)ccc1NC(=O)Nc1ccc(Cl)c(C(F)(F)F)c1 [CBT-102]
ARK5
  remaining activity at 1 µM: 100%
PIM1
  remaining activity at 1 µM: 95%
MAP3K15
  remaining activity at 1 µM: 99%
FLT3 (D835H)
  remaining activity at 1 µM: 42%
PLK2
  remaining activity at 1 µM: 93%
PDPK1
  remaining activity at 1 µM: 100%
MARK4
  remaining activity at 1 µM: 100%
CTK
  remaining activity at 1 µM: 74%
CDK8
  remaining activity at 1 µM: 14%
M-NFS-60 cells
  IC50: 343 nM
M-NFS-60 cells; Mus musculus, 72 h
  IC50: 631 nM
ABL2
  remaining activity at 1 µM: 40%
TRKB
  remaining activity at 1 µM: 71%
PIP5K1C
  remaining activity at 1 µM: 93%
LRRK2
  remaining activity at 1 µM: 73%
NEK5
  remaining activity at 1 µM: 96%
NEK9
  remaining activity at 1 µM: 96%
SRC
  remaining activity at 1 µM: 76%
STK36
  remaining activity at 1 µM: 2.5%
PAK2
  remaining activity at 1 µM: 94%
WNK1
  remaining activity at 1 µM: 87%
MST3
  remaining activity at 1 µM: 89%
TAOK1
  remaining activity at 1 µM: 49%
CAMK1B
  remaining activity at 1 µM: 98%
MKNK2
  remaining activity at 1 µM: 83%
EPHA2
  remaining activity at 1 µM: 40%
WNK4
  remaining activity at 1 µM: 89%
ERK5
  remaining activity at 1 µM: 88%
CDK4-cyclinD3
  remaining activity at 1 µM: 100%
CSNK1A1
  remaining activity at 1 µM: 99%
HCK
  remaining activity at 1 µM: 54%
DLK
  remaining activity at 1 µM: 89%
TAOK2
  remaining activity at 1 µM: 23%
BIKE
  remaining activity at 1 µM: 61%
GSK3A
  remaining activity at 1 µM: 18%
TSSK1B
  remaining activity at 1 µM: 87%
NEK10
  remaining activity at 1 µM: 77%
